These results are taken from ChEMBL document CHEMBL1121374, “Analgesic narcotic antagonists. 4. 7-Methyl-N-(cycloalkylmethyl)-3-hydroxymorphinan-6-ones and -isomorphinan-6-ones” (1980).

The subject of experiment [1] is Mus musculus. The experiment is described as follows: Compound was tested for analgesia in mouse writhing assay by subcutaneous administration. It is filed as functional. (In general: An intraperitoneal irritant provokes the stretching counted in writhing tests.)
Experiment [2] concerns Rattus norvegicus. The experiment is described as follows: Antagonist activity in rat tail flick assay by intraperitoneal administration. The experiment is classed as functional. A general note: Hot-plate and tail-flick tests time the reaction to a heat stimulus.
For experiment [3], the species on record is Rattus norvegicus. The experiment can be described thus: Ratio of agonist potency to antagonist potency was determined. The experiment is classed as functional.
In experiment [4] the test system is Rattus norvegicus. The experiment is described as follows: Antagonist activity in rat tail flick assay by subcutaneous administration. It is filed as functional.
The subject of experiment [5] is Rattus norvegicus. The experiment can be described thus: Compound was tested for antagonist in rat tail flick assay by subcutaneous administration at dose 33 umol/kg; IA means inactive. It is filed as functional, organism-based.
For experiment [6], the system named is Mus musculus. The experiment can be described thus: Compound was tested for analgesia in mouse writhing assay by subcutaneous administration short duration at 5 min. The experiment is classed as functional. The following applies: sc.
The subject of experiment [7] is Mus musculus. The experiment can be described thus: Compound was tested for analgesia in mouse writhing assay by subcutaneous administration; IA means inactive. It is filed as functional, organism-based.
The test system of experiment [8] is Rattus norvegicus. The experiment is described as follows: Compound was tested for antagonist in rat tail flick assay by subcutaneous administration at dose 27 umol/kg; IA means inactive. The experiment is classed as functional, organism-based.
Experiment [9] relates to Rattus norvegicus. The experiment can be described thus: Compound was tested for antagonist in rat tail flick assay by subcutaneous administration at dose 29 umol/kg; IA means inactive. It is filed as functional, organism-based.
For experiment [10], the system named is Rattus norvegicus. The experiment is described as follows: Compound was tested for antagonist in rat tail flick assay by intraperitoneal administration at dose 25 umol/kg; IA means inactive. It is filed as functional, organism-based.
Setting [11] is: Rattus norvegicus, Tail, ip, read-out: ED50.
Where [12] appears, read: Mus musculus, sc, read-out: ED50.
[13] abbreviates: Rattus norvegicus, Tail, sc, read-out: ED50.

Active and inactive are the calls of the source. The rule behind the calls is not given here.

In the case of `C[C@@H]1C[C@@H]2C3Cc4ccc(O)cc4C2(CCN3CC2CCC2)CC1=O` (stereo in doubt; 13T), the figures for the ED50 in [1] and in experiment [2] (setting [11]) were 2.6 µM/kg and 13.8 µmol/kg, respectively. For the same compound, the Ratio in experiment [3] is given as 0.2.

Consider `C[C@H]1[C@H](C)C(=O)CC23CCN(C)C(Cc4ccc(O)cc42)[C@H]13` (stereo not given in full), for which the values for the ED50 in experiment [1] (setting [12]) and in [4] (setting [13]) were 0.4 µmol/kg and 12.4 µmol/kg, respectively.

`COc1ccc2c(c1)C13CCN(C)C(C2)[C@@H]1C[C@H](C)C(=O)C3` (stereo in doubt; 6C): the ED50 in [1] was found to be 1.72 µM/kg; in [4] (setting [13]), 2.32 µmol/kg.

On to `C[C@@H]1C[C@@H]2C3Cc4ccc(O)cc4C2(CCN3C)CC1=O` (stereo in doubt; 7T a), for which the ED50 in [1] came out at 0.91 µM/kg; in [4] it was 1.09 µM/kg.

Take `COc1ccc2c(c1)C13CCN(C)C(C2)[C@H]1C[C@@H](C)C(=O)C3` (stereo in doubt; 6T a): in [5], the ED50 entry was “inactive”.

In the case of `C[C@H]1C[C@H]2C3Cc4ccc(O)cc4C2(CCN3C)CC1=O` (stereo in doubt; 7C), the ED50 in experiment [1] came to 0.52 µM/kg; in [4], 70 µM/kg.

For `C[C@@H]1[C@@H](C)C(=O)CC23CCN(CC4CC4)C(Cc4ccc(O)cc42)[C@@H]13` (stereo not given in full), the results for the ED50 in experiment [1] (setting [12]) and in experiment [2] (setting [11]) were 4.5 µmol/kg and 1.02 µmol/kg, respectively. Moreover, the Ratio in [3] was found to be 4.4.

In the case of `CC[C@@H]1[C@@H](C)C(=O)CC23CCN(C)C(Cc4ccc(O)cc42)[C@@H]13` (stereo not given in full), the ED50 in experiment [1] (setting [12]) came out at 7.53 µmol/kg; in experiment [4] (setting [13]) it was 7.45 µmol/kg.

With `C[C@H]1[C@H]2Cc3ccc(O)cc3[C@]1(C)CCN2CC1CC1` [CYCLAZOCINE], the ED50 in [1] (setting [12]) was 0.41 µmol/kg; in experiment [2] (setting [11]) it was 0.81 µmol/kg. Further, the Ratio in experiment [3] was determined as 0.5.

On to `C[C@@H]1C[C@@H]2C3Cc4ccc(O)cc4C2(CCN3C)CC1=O` (stereo in doubt; 7T), for which the ED50 in [1] (setting [12]) was determined as 0.75 µmol/kg; in experiment [4] (setting [13]) it was 1.33 µmol/kg.

On to `COc1ccc2c(c1)C13CCN(CC4CC4)C(C2)[C@@H]1C[C@H](C)C(=O)C3.Cl` (stereo not given in full), for which the ED50 was found to be 1.6 µM/kg in experiment [1] and 42.6 µM/kg in experiment [2]. In addition, the Ratio in experiment [3] is listed as 0.04.

On to `C[C@@H]1C[C@@H]2C3Cc4ccc(O)cc4C2(CCN3CC2CC2)CC1=O` (stereo in doubt; 12T a), for which the ED50 in experiment [6] is 1.77 µmol/kg; in experiment [2], 1.18 µM/kg. The Ratio in experiment [3] was found to be 1.5.

For the compound `COc1ccc2c(c1)C13CCN(C)C(C2)[C@H]1C[C@@H](C)C(=O)C3` (stereo in doubt; 6T), the ED50 in [1] is 5.54 µM/kg; in experiment [4] (setting [13]), greater than 70 µmol/kg.

As to `COc1ccc2c(c1)C13CCN(CC4CC4)C(C2)[C@@H]1C[C@H](C)C(=O)C3` (stereo not given in full), the ED50 in experiment [1] was 0.66 µM/kg; in [2], 14.9 µM/kg. Besides, the Ratio in experiment [3] came out at 0.04.

Regarding `CC[C@H]1[C@H](C)C(=O)CC23CCN(CC4CCC4)C(Cc4ccc(O)cc42)[C@H]13` (stereo not given in full), the ED50 in experiment [1] (setting [12]) came to 8.19 µmol/kg; in experiment [2] (setting [11]), 4.84 µmol/kg. Further, the Ratio in [3] was found to be 1.7.

Regarding `COc1ccc2c(c1)C13CCN(CC4CC4)C(C2)[C@@H]1[C@@H](C)[C@H](C)C(=O)C3.Cl` (stereo not given in full), the ED50 in experiment [1] (setting [12]) came to 2.64 µmol/kg; in experiment [2] (setting [11]), 12.1 µmol/kg. Besides, the Ratio in [3] was found to be 0.22.

Turning to `CC[C@H]1[C@H](C)C(=O)CC23CCN(CC4CC4)C(Cc4ccc(OC)cc42)[C@H]13.Cl` (stereo not given in full), the ED50 in experiment [1] (setting [12]) was determined as 8.04 µmol/kg; in experiment [2] (setting [11]), 15.7 µmol/kg. In addition, in experiment [3], the Ratio came to 0.51.

`COc1ccc2c3c1O[C@H]1[C@@H](O)C=C[C@H]4[C@@H](C2)N(C)CC[C@@]341` [CODEINE]: the ED50 in experiment [1] (setting [12]) is 10.2 µmol/kg; in [4] (setting [13]), 75 µmol/kg.

Take `C=CCN1CC[C@]23c4c5ccc(O)c4O[C@H]2C(=O)CC[C@@]3(O)[C@H]1C5` [NALOXONE]: in [7], the ED50 result was “inactive”.

As for `COc1ccc2c(c1)C13CCN(C)C(C2)[C@@H]1C[C@H](C)C(=O)C3` (stereo in doubt; 6C a), the figures for the ED50 in experiment [1] and in experiment [4] were 0.5 µM/kg and 1.6 µM/kg, respectively.

As for `C[C@H]1C[C@H]2C3Cc4ccc(O)cc4C2(CCN3C)CC1=O` (stereo in doubt; 7C a), the figures for the ED50 in experiment [1] (setting [12]) and in experiment [4] were 0.39 µmol/kg and 1.82 µM/kg, respectively.

Regarding `CC[C@@H]1[C@@H](C)C(=O)CC23CCN(C)C(Cc4ccc(OC)cc42)[C@@H]13` (stereo not given in full), in experiment [1] (setting [12]), the ED50 was determined as 7.42 µmol/kg. Besides, the ED50 result in experiment [8] was “inactive”.

Turning to `CC(C)=CCN1CC[C@]2(C)c3cc(O)ccc3C[C@H]1[C@H]2C` [(+)-PENTAZOCINE], the ED50 in experiment [1] (setting [12]) was 12.9 µmol/kg; in [2] (setting [11]), 36.4 µmol/kg. Besides, in experiment [3], the Ratio stood at 0.36.

As for `COc1ccc2c(c1)C13CCN(C)C(C2)[C@H]1[C@H](C)[C@@H](C)C(=O)C3` (stereo not given in full), in experiment [1] (setting [12]), the ED50 is 3.72 µmol/kg. In addition, the ED50 entry in experiment [9] was “inactive”.

For `C=CCN1CC[C@]23c4c5ccc(O)c4O[C@H]2[C@@H](O)C=C[C@H]3[C@H]1C5` [NALORPHINE], the ED50 in [1] (setting [12]) turned out to be 3.51 µmol/kg; in experiment [2] (setting [11]) it was 2.47 µmol/kg. Also, in [3], the Ratio came out at 1.42.

Turning to `CC[C@H]1[C@H](C)C(=O)CC23CCN(C)C(Cc4ccc(OC)cc42)[C@H]13` (stereo not given in full), the figures for the ED50 in experiment [1] (setting [12]) and in [4] (setting [13]) were 0.49 µmol/kg and 2.75 µmol/kg, respectively.

`COc1ccc2c3c1O[C@H]1C(=O)CC[C@H]4[C@@H](C2)N(C)CC[C@]314` [HYDROCODONE]: the ED50 in experiment [1] (setting [12]) stood at 2.36 µmol/kg; in experiment [4] (setting [13]) it was 5.2 µmol/kg.

Turning to `C[C@H]1[C@H](C)C(=O)CC23CCN(CC4CC4)C(Cc4ccc(O)cc42)[C@H]13` (stereo not given in full), the ED50 in experiment [1] (setting [12]) amounted to 23 µmol/kg; in [2] (setting [11]), 0.35 µmol/kg. Besides, the Ratio in experiment [3] is recorded as 65.

As to `C[C@H]1C[C@H]2C3Cc4ccc(O)cc4C2(CCN3CC2CCC2)CC1=O` (stereo in doubt; 13C), the ED50 entry in experiment [10] is “inactive”.

In the case of `C[C@H]1C[C@H]2C3Cc4ccc(O)cc4C2(CCN3CC2CC2)CC1=O` (stereo in doubt; 12C a), the ED50 in [1] is 2.4 µM/kg; in experiment [2] it was 14.4 µM/kg. Also, the Ratio in [3] is 0.17.

As for `C[C@@H]1C[C@@H]2C3Cc4ccc(O)cc4C2(CCN3CC2CC2)CC1=O` (stereo in doubt; 12T), the ED50 in [1] (setting [12]) worked out at 8.9 µmol/kg; in [2] (setting [11]), 2.24 µmol/kg. Moreover, the Ratio in experiment [3] came to 4.

As for `CC[C@H]1[C@H](C)C(=O)CC23CCN(C)C(Cc4ccc(O)cc42)[C@H]13` (stereo not given in full), the results for the ED50 in experiment [1] (setting [12]) and in experiment [4] (setting [13]) were 0.14 µmol/kg and 1.5 µmol/kg, respectively.

For the compound `C[C@H]1C[C@H]2C3Cc4ccc(O)cc4C2(CCN3CC2CC2)CC1=O` (stereo in doubt; 12C), the ED50 in [1] (setting [12]) was found to be 3.28 µmol/kg; in experiment [2] (setting [11]) it was 7.4 µmol/kg. Besides, the Ratio in experiment [3] amounted to 0.44.

On to `COc1ccc2c(c1)C13CCN(CC4CCC4)C(C2)[C@@H]1C[C@H](C)C(=O)C3` (stereo not given in full), for which the ED50 entry in experiment [10] is “inactive”.

For the compound `C[C@H]1[C@H](C)C(=O)CC23CCN(CC4CCC4)C(Cc4ccc(O)cc42)[C@H]13` (stereo not given in full), the ED50 was 2.21 µmol/kg in [1] (setting [12]) and 5.66 µmol/kg in [2] (setting [11]). The Ratio in [3] is on record as 0.4.

With `Oc1ccc2c(c1)[C@@]13CCCC[C@@]1(O)[C@@H](C2)N(CC1CCC1)CC3` [BUTORPHANOL], the values for the ED50 in experiment [1] (setting [12]) and in [2] (setting [11]) were 0.34 µmol/kg and 2 µmol/kg, respectively. The Ratio in experiment [3] was 0.17.
